The structures appear in SMILES notation.

The conditions of the data set: rat; liver microsomes; pH 7.4; 15.0 min; 1.0 µM. (In general: Microsomes from liver hold many membrane-bound enzymes, among them those of drug oxidation.)
A word on the half-life: it is the time in which the quantity being followed falls by half. For `CCOc1ccccc1N(CC(=O)Nc1cc(OC)ccc1OC)S(=O)(=O)c1ccccc1`, the half-life was 1.38 min.

On to `Cc1ccc(S(=O)(=O)Nc2cnccc2C(=O)Nc2nc(-c3ccccc3F)cs2)cc1`, for which the half-life came to 9.9 min.

With `O=C1CCCC2=C1C(c1[nH]ncc1Cl)N=C(Nc1nc3cccc(Cl)c3o1)N2` (centres undefined), the half-life is 4.5 min.

`Cc1ccc(C)c(CN2C(=O)c3ccccc3S(=O)c3ccc(C(=O)N4CCN(c5ccccc5F)CC4)cc32)c1` (centres undefined) yielded a half-life of 2.32 min.

For `C[N+]1([O-])[C@@H]2CC[C@H]1CC(OC(=O)C(CO)c1ccccc1)C2` (some centres undefined), the half-life was > 30 min.

The molecule `COc1ccccc1Nc1ccnc(N2CCN(C(=O)c3ccc(C)cc3)CC2)n1` had a half-life of 5.68 min.

For the molecule `Cc1ccc(C(=O)Nc2cccc(C(F)(F)F)c2)cc1Nc1nc(-c2cccnc2)nc2c1cnn2C`, the half-life is > 30 min.

For `CC(C)c1c(-c2ccccc2)nc2c(C#N)c[nH]n2c1=O`, the half-life was > 30 min.

For the molecule `Cc1ccc(-c2ccc(CNc3nc(-c4ccccc4C(C)C)ncc3C)cc2)cn1`, the half-life was determined as 4.28 min.

`COc1ccccc1C(=O)Nc1nc2nc(C)cc(=O)n2[nH]1` gave a half-life of 26 min.

For the molecule `CCCCNc1oc(-c2cccc3ccccc23)nc1C#N`, the half-life was determined as 5.78 min.

`O=C(Nc1cn[nH]c1-c1nc2ccc(CN3CCOCC3)cc2[nH]1)NC1CC1`: the half-life is > 30 min.

Regarding `CC1=C(C(=O)Nc2nncs2)C(c2[nH]ncc2Cl)N=C(Nc2nc3ccccc3o2)N1` (centres undefined), the half-life was > 30 min.

With `CCS(=O)(=O)N1CC(CC#N)(n2cc(-c3ncnc4[nH]ccc34)cn2)C1`, the half-life was > 30 min.

As for `Cc1ccc(S(=O)(=O)Nc2cc(F)c(F)cc2C(=O)Nc2nc(-c3ccccc3)cs2)cc1`, the half-life worked out at 4.6 min.

With `Cc1ccc(S(=O)(=O)Nc2cnccc2C(=O)Nc2ccc(-c3nn[nH]n3)cc2)cc1`, the half-life is > 30 min.

As for `CCc1cc(Cl)c(OC)c(C(=O)NC[C@@H]2CCCN2CC)c1O`, the half-life worked out at 1.71 min.

Turning to `Cc1nc([N+](=O)[O-])cn1-c1ccc([N+](=O)[O-])cc1`, the half-life was > 30 min.

For `CCOc1ccc(CCNC(=O)c2cc3ncccc3n2Cc2cccc(C)n2)cc1OCC`, the half-life worked out at 6.7 min.

Consider `CC(=O)Nc1nc(-c2ccc3c(c2)CCN3C(=O)c2ccccc2C)c(C)s1`, for which the half-life was determined as 18 min.

For `Oc1ccc(C(=S)N2CCN(c3cccc(Cl)c3)CC2)cc1`, the half-life turned out to be 1.7 min.

For the molecule `COc1ccc(-c2ccc3nc(-c4cc(F)cc(F)c4F)oc3c2)c(OC)c1OC`, the half-life was > 30 min.

Regarding `O=C([C@@H]1CCCN(c2ccc3[nH]c(C4(n5cc(Cl)cn5)CC4)nc3n2)C1)N1CCCC1`, the half-life is > 30 min.

As to `CNc1oc(-c2cccc(-c3ccccc3)c2)nc1C#N`, the half-life was 12 min.

As for `CC(C)Oc1cccc(-c2cnc(N3CCC(C(N)=O)CC3)s2)c1`, the half-life came to 23 min.

Consider `CCC(Sc1nc2ccccc2c2nc(CCc3c(C)n[nH]c3C)nn12)C(=O)Nc1ccc(F)cc1` (centres undefined), for which the half-life is 4.01 min.

Regarding `Cc1ccc(S(=O)(=O)Nc2cnccc2C(=O)Nc2nc3ccccc3s2)cc1`, the half-life was 4.1 min.

As to `Cc1cnc(-c2ccccc2C2COC2)nc1NCC1CCN(c2cccnc2)CC1`, the half-life is > 30 min.

As to `CC(=O)c1c(C)[nH]c(C(=O)N(C)C)c1C`, the half-life is > 30 min.

`O=C(Nc1ncc(Cc2cccc(C(F)(F)F)c2)s1)c1ccc(-c2cccc([N+](=O)[O-])c2)o1`: the half-life is > 30 min.

Consider `NC(=O)C1CCN(c2ncc(-c3ccc4c(c3)OC(F)(F)O4)s2)CC1`, for which the half-life amounted to 9.4 min.

In turn, `CCOc1ccc(CCNC(=O)c2cc3ccncc3n2Cc2cccc(C)n2)cc1OCC` came in with a half-life of 29 min.

As to `Cc1ccc(S(=O)(=O)Nc2cc(F)ccc2C(=O)Nc2nc(-c3ccccc3)cs2)cc1`, the half-life was 5.6 min.

In the case of `O=C(Nc1nc(-c2ccccc2)cs1)c1ccccc1[N+](=O)[O-]`, the half-life is 17 min.

`Cn1cc(Br)c(C2N=C(Nc3nc4ccccc4o3)NC3=C2C(=O)CCC3)n1` (centres undefined) had a half-life of 8.5 min.

The molecule `COc1ccnc(NC(=S)N2CCN(c3ccccc3C(F)(F)F)CC2)c1` gave a half-life of 2.9 min.

In the case of `O=C(Nc1ccc(S(=O)(=O)Nc2nccs2)cc1)c1ccc(-c2ccccc2)cc1`, the half-life is > 30 min.

For `c1ccc(Nc2cc3c(cn2)CN(Cc2c[nH]c4ccccc24)CCN3)cc1`, the half-life was 7.47 min.

As to `Cc1ccc(/C=C/c2nc3ccccc3n2S(=O)(=O)c2cccc(Cl)c2)cc1`, the half-life was found to be 17.6 min.

With `Fc1ccc(Nc2nccc(-c3ccncc3)n2)cc1F`, the half-life is 16 min.

In turn, `COc1ccc(-c2nc(NC(C)c3ccccc3)c3ccccc3n2)cc1` (centres undefined) came in with a half-life of 20.3 min.

Consider `O=C(Nc1ccc(S(=O)(=O)Nc2nccs2)cc1)c1ccnc(-c2ccccc2)c1`, for which the half-life is > 30 min.

`COc1ccc(CN(C2CCCCC2C)S(=O)(=O)c2ccc(S(=O)(=O)N(C)C)cc2)cc1OC` (centres undefined) had a half-life of 1.6 min.

On to `COc1cccc2nc(-c3cccs3)nc(NN3C(=O)C=C(C)C3=O)c12`, for which the half-life worked out at 4.26 min.

Consider `NCC(=O)Nc1cccc(-c2nn3c(=O)cc(N4CCNCC4)nc3s2)c1`, for which the half-life was > 30 min.

In turn, `C#C[C@]1(OC(C)=O)CC[C@H]2[C@@H]3CCC4=C/C(=N/O)CC[C@@H]4[C@H]3CC[C@@]21CC` had a half-life of 3.98 min.

`Cc1ccc(S(=O)(=O)Nc2ccccc2C(=O)Nc2ncc(-c3ccccc3)s2)cc1` displayed a half-life of 13 min.

The molecule `CC1=C(C(=O)Nc2nnc(-c3ccccc3)s2)C(c2nn(C)cc2Cl)N=C(Nc2nc3ccccc3o2)N1` (centres undefined) displayed a half-life of 11 min.

In turn, `Cc1ccc(S(=O)(=O)Nc2ccccc2C(=O)Nc2nc(-c3ccccc3)co2)cc1` registered a half-life of 3.9 min.

As to `O=C(Nc1nc(-c2ccccc2)cs1)c1ccncc1NS(=O)(=O)c1ccccc1`, the half-life worked out at 13 min.

`CN(C)S(=O)(=O)c1cccc(NC(=O)c2ccc[nH]2)c1` showed a half-life of 10.5 min.

In turn, `COc1ccc(NC(=O)c2c(C)c(C(C)=O)c(C)n2C)cc1S(=O)(=O)Nc1ccc(Br)cc1` had a half-life of 5.9 min.

For the molecule `C=Cc1ccc(C(=O)N2CCCC(CCC(=O)N3CCN(c4ccccn4)CC3)C2)cc1` (centres undefined), the half-life is 1.5 min.

`OCc1ccc(-c2nn(Cc3ccccc3)c3ccccc23)o1` displayed a half-life of 5.17 min.

`Cc1ccnc(NC(=S)N2CCN(c3cc(C(F)(F)F)cc(C(F)(F)F)c3)CC2)c1`: the half-life is > 30 min.

As to `O=C1CCCc2cc(S(=O)(=O)Nc3cnccc3C(=O)Nc3nc(-c4ccccc4)cs3)ccc2N1`, the half-life is > 30 min.

In the case of `CC(C)(C)OC(=O)N1CCN(c2ccc(NCc3ccc(-c4ccc(C#N)cc4)o3)cc2)CC1`, the half-life was found to be 3.62 min.

On to `NC(=O)C1CCN(c2nc(-c3cccc(F)c3)cs2)CC1`, for which the half-life was 1.95 min.

The molecule `Cc1ccc(OCCn2c(CCNC(=O)N3CCCCC3)nc3ccccc32)cc1` returned a half-life of 1.7 min.

`COc1ccc(OC)c(-n2c3c(cc(-c4nc(-c5ccc(Cl)cc5)cs4)c2=O)C(=O)CC(C)(C)C3)c1`: the half-life was > 30 min.

Consider `COc1ccc(NC(=O)c2[nH]c(C)c(C(C)=O)c2C)cc1[S+](=O)([O-])Nc1ccccc1C#N`, for which the half-life was > 30 min.

In turn, `Cc1ccnc(NC(=S)N2CCN(c3cc(F)cc(Cl)c3)CC2)c1` showed a half-life of 21 min.

Take `O=C1Nc2ccccc2/C1=C\c1ccc(O)c(Cl)c1`: the half-life was 16 min.

In turn, `CC1(C)CNc2cc(NC(=O)c3cccnc3NCc3ccncc3)ccc21` displayed a half-life of 15.2 min.

(Values after PubChem BioAssay AID1508591.)
